We go through one compound from ChEMBL document CHEMBL1158147, “Ultraviolet-mediated cytotoxic activity of phenylheptatriyne from Bidens pilosa L” (J Nat Prod, 1979).

One data set concerns Nannizzia gypsea. Description: Phototoxicity against Microsporum gypseum at 5 ug/disk in dark. Format: functional, organism-based.
A further data set concerns Kocuria rosea. The data set can be described thus: Phototoxicity against Micrococcus roseus UBC 289 at 5 ug/disk in presence of cool-white fluorescent light. Format: functional, organism-based.
For data set [1], the system named is Saccharomyces cerevisiae. Description: Effect on Saccharomyces cerevisiae assessed as viable cell count at 10 ug/ml in petroleum ether after 5.33 Joules/cm'2 UV irradiation for 60 mins. Format: functional.
Another data set concerns Paraphyton cookei. Description: Phototoxicity against Microsporum cookei at 5 ug/disk in presence of cool-white fluorescent light. Format: functional, organism-based.
The test system of another data set is Fusarium sp. The data set can be described thus: Phototoxicity against Fusarium sp. at 5 ug/disk in presence of cool-white fluorescent light. Format: functional, organism-based.
The next data set relates to Enterococcus faecalis. Description: Phototoxicity against Streptococcus faecalis at 5 ug/disk in presence of long wave UV light. Format: functional, organism-based.
Another data set concerns Proteus mirabilis. Description: Phototoxicity against Proteus mirabilis UBC 5 at 5 ug/disk in dark. Format: functional, organism-based.
Data set [2] concerns Staphylococcus epidermidis. The data set can be described thus: Phototoxicity against Staphylococcus albus at 5 ug/disk in presence of long wave UV light. Format: functional, organism-based.
Data set [3] concerns DNA. Description: Photochemical activity against denatured calf thymus DNA at 10 ug after UV irradiation with 10.67 Joules/cm'2 for 120 mins by hyperchromicity test. Further: unit not given here. Conditions: Bos taurus. Format: nucleic-acid assay.
Data set [4] deals with Torula. Description: Phototoxicity against Torula sp. at 5 ug/disk in presence of cool-white fluorescent light. Format: functional, organism-based.
Data set [5] relates to Trichophyton mentagrophytes. The data set can be described thus: Phototoxicity against Trichophyton mentagrophytes at 5 ug/disk in presence of cool-white fluorescent light. Format: functional, organism-based.
The subject of data set [6] is DNA. Description: Photochemical activity against denatured calf thymus DNA at 10 ug after UV irradiation with 16.00 Joules/cm'2 for 180 mins by hyperchromicity test. Format: nucleic-acid assay. Particulars: Bos taurus.
The subject of data set [7] is Torula. Description: Phototoxicity against Torula sp. at 5 ug/disk in presence of long wave UV light. Format: functional, organism-based.
Data set [8] concerns DNA. Description: Photochemical activity against denatured calf thymus DNA at in dark after 120 mins by hyperchromicity test. Further: unit not given here. Format: nucleic-acid assay. Conditions: Bos taurus.
Data set [9] relates to Saccharomyces cerevisiae. The data set can be described thus: Phototoxicity against Saccharomyces cerevisiae at 2.5 ug/disk after UV irradiation for 15 mins. Format: functional. Particulars: light or radiation study, 0.25 h, read-out: IZ.
In data set [10] the test system is Rhodotorula mucilaginosa. Description: Phototoxicity against Rhodotorula rubra Y96 at 5 ug/disk in presence of long wave UV light. Format: functional, organism-based.
Another data set deals with Sporobolomyces. The data set can be described thus: Phototoxicity against Sporobolomyces sp. Y138 at 5 ug/disk in presence of cool-white fluorescent light. Format: functional, organism-based.
In the next data set the test system is Candida albicans. Description: Phototoxicity against Candida albicans at 2.5 ug/disk after UV irradiation for 15 mins. Format: functional. Conditions: light or radiation study, 0.25 h, read-out: IZ.
A further data set concerns Pseudomonas fluorescens. The data set can be described thus: Phototoxicity against Pseudomonas fluorescens at 5 ug/disk in presence of long wave UV light. Format: functional, organism-based.
Data set [11] has as its system DNA. Description: Photochemical activity against denatured calf thymus DNA at 10 ug in dark after 30 mins by hyperchromicity test. Conditions: Bos taurus. Format: nucleic-acid assay.
A short description of data set [12]: Effect on human skin fibroblast cells assessed as viable cell count at 10 ug/ml in petroleum ether after 1.78 Joules/cm UV irradiation for 20 mins by trypan blue exclusion method. Particulars: read-out: Activity. Format: ADME, cell-based.
Data set [13] is described as follows: Effect on human skin fibroblast cells assessed as viable cell count at 10 ug/ml in petroleum ether in dark after 60 mins by trypan blue exclusion method. Format: ADME, cell-based. Conditions: read-out: Activity.
The subject of data set [14] is Trichophyton mentagrophytes. The data set can be described thus: Phototoxicity against Trichophyton mentagrophytes at 5 ug/disk in presence of long wave UV light. Format: functional, organism-based.
The subject of data set [15] is Rhodotorula mucilaginosa. The data set can be described thus: Phototoxicity against Rhodotorula rubra Y96 at 5 ug/disk in dark. Format: functional, organism-based.

Molecules are shown by their SMILES. Active and inactive are the calls of the source. The calls are words filed in the database; no cut-off is given here.

In the case of `CC#CC#CC#Cc1ccccc1` [PHENYLHEPTATRIYNE], the result with Nannizzia gypsea, with Proteus mirabilis, in the data set with Torula [4], with Pseudomonas fluorescens and with Rhodotorula mucilaginosa [15] was inactive. The result (in the data set with Kocuria rosea; with Paraphyton cookei; in the data set with Fusarium sp.; with Enterococcus faecalis; in data set [2]; in [5]) was Active. Moreover, the result (in the data set on Torula [7]; in the data set with Rhodotorula mucilaginosa [10]; with Sporobolomyces; in [14]) was Active. The Activity in the data set on Saccharomyces cerevisiae [1] was 0; in the data set with DNA [3] it was 0.01; in the data set with DNA [6] it was 0; in the data set with DNA [8], 0.19; with DNA [11] it was 0.17. For the same compound, the figures for the zone of inhibition at 2.5 µg/disc in the data set with Saccharomyces cerevisiae [9] and in the data set on Candida albicans were 10 mm and 11 mm, respectively. Also, the viability at 20 min, 10 ug/ml in data set [12] is 95%. Also, the viability at 1 h, 10 ug/ml in data set [13] worked out at 100%.
